From US10722582B2, “Targeted antimicrobial photodynamic therapy” (Purdue Research Foundation, priority 2018, dated 2020)

Experiments:
S. aureus = experiment: aPDI with 405-nm LED bar, summary over strains; type: cell-based, Staphylococcus aureus; details: 10 seconds, 405-nm light-emitting diode bar (99 mW/cm^2), fluence about 1 J/cm^2
Method: (§1) Antibacterial activity assay general protocol: Used LED light to test conditions. Bacteria were grown in TS broth, followed by 3 mM bipyridine in TS broth until log phase. Bacteria were then diluted with PBS, to OD 0.1 (˜10^) and then to ˜10^7 cfu/mL. 100 uL of bacteria were placed in 96 well plates with the appropriate GaPpIX concentration. 2× serial dilutions were then done to obtain other GaPpIX concentrations. Each concentration was done in triplicate. Bacteria were left incubating and irradiating for different amount of times at different light powers or left in the dark. 10× Serial dilutions were done and bacteria were plated for colony counting using the drop-plate technique. Colonies were counted after 24 hours. As reported herein, a 3-log reduction equals measurable antimicrobial action; a 6-log reduction equals total eradication.

[1] = system: S. aureus and clinical isolates of MRSA; experiment: aPDI with CFL irradiation, summary over strains; type: cell-based, Staphylococcus aureus; details: 15 minutes of irradiation, compact fluorescence lightbulb (λmax 406 nm, 12.4 mW/cm^2)
Method: (§2) A 20-W compact fluorescent lightbulb (CFL; Sunlite SL20/BLB) housed in an ellipsoidal reflector dome was used for aPDI, at an emission wavelength at 406 nm and a mean power density of 12.4 mW/cm^2 (after applying a 408-nm shortpass filter). Antimicrobial assays were performed on planktonic bacteria at 10^7 cfu/mL with variable exposure times to CFL irradiation, followed by plating on agar and incubation at 37° C. In a typical experiment, bacterial suspensions were transferred into 96-well plates then treated with 100-μL aliquots of Ga-PpIX or PpIX solution, with final concentrations ranging from 320 to 0.31 μg/mL, followed immediately with CFL irradiation for 5 to 15 minutes. The irradiated bacteria were plated onto agar in serial tenfold dilutions (10^7-10^1 cfu/mL); controls included one set of wells without photosensitizer, and one set of wells with photosensitizer but without 15 min irradiation, prior to plating (dark toxicity). Bacterial counts were determined by the drop-plate method using TS-agar plates, and reported in colony-forming units per milliliter (cfu/mL).

MRSA385 = experiment: Antibacterial activity assay with LED light; type: cell-based, Staphylococcus aureus
Method: as §1
(§3) Stock solution preparation (AVM-3-36, 10 nm AgNP). Prepared a solution of (AVM-2-273) GaPpIX-apoHb 1 mg/mL in MP H2O, deaerated. Took 10 mL of 10 nm AgNPs, centrifuged at 900 G for 5 min (Beckman, 3100 RPM), took supernantant and added 200 uL of GaPpIXHb. After overnight, centrifuged 3000 RPM g for 5 minutes (Beckman). Took supernantant and centrifuged using a 100 K CentriCon tube at 4000 RPM for 5 minutes, 3×. Added 15 mM borate buffer to NPs. Based on calibration curve, the stock solution is 1.94 ug/mL AgNP, so stock: 79 μg/mL AgNP, 10.37 μg/mL GaPpIXHb, 0.446 μg/mL GaPpIX (refer to AVM-2-293A and AVM-3-3).
(§4) The following antibacterial activity measurements were assayed in the presence of AgNP.

MRSA387 = experiment: Antibacterial activity assay with LED light; type: cell-based, Staphylococcus aureus
Method: as §1, §3, §4

MRSA383 = experiment: Antibacterial activity assay with LED light; type: cell-based, Staphylococcus aureus
Method: as §1, §3, §4

MRSA386 = experiment: Antibacterial activity assay with LED light; type: cell-based, Staphylococcus aureus
Method: as §1, §3, §4

CSHR-expressing bacteria = experiment: Bacterial uptake of GaPpIX, time to saturation; type: cell-based
Method: Bacteria were cultured and assayed in iron-deficient media unless otherwise noted. A stock solution of Ga-PpIX (14.6 μM) was prepared by dispersing 5 mg in 1 mL of 10% DMSO in PBS for 10 minutes in an ultrasonic cleaning bath protected from light, followed by filtration and 10× dilution in PBS just prior to use. Bacterial suspensions (0.5 mL) were treated with freshly prepared solutions of PpIX derivatives for specified periods (5-15 min), then harvested by centrifugation at 5.2 g for 5 minutes, redispersed twice in 0.5 mL deionized water, and centrifuged a third time. A 10-μL aliquot of concentrated bacteria was deposited onto a glass slide and dried in air for 20 min, then imaged by fluorescence microscopy as described above. For details on fluorescence image processing and quantitative analysis, see Supporting Information.
Darkfield and fluorescent images were acquired in succession, with the former used to map regions of interest (ROIs) by tracing the outlines of bacteria (FIG. 8). Three images were acquired for each sample; in each case, the tracing map was overlaid onto the fluorescence image to calculate pixel intensities within each ROI, using the mean pixel intensity for quantitative analysis. […]

[2] = system: four clinical isolates of MRSA; experiment: aPDI with CFL irradiation, summary over MRSA isolates; type: cell-based, Staphylococcus aureus
Method: In all cases, we observed potent aPDI with bactericidal activities at 1-5 μM (Table 1). The consistent response to Ga-PpIX treatment is encouraging, as variable efficacy between strains is a known problem in antimicrobial photodynamic therapy (Nakonieczna, J. et al., Photodiagn. Photodyn. Ther. 2012, 9, 359-361). […] We note that PpIX is already approved as a photosensitizer for topical treatment of several skin diseases, but its utility is limited by poor photostability.
as §2, with “The irradiated bacteria were plated onto agar in serial tenfold dilutions (10^7-10^1 cfu/mL); controls included one set of wells without photosensitizer, and one set of wells with photosensitizer but without 15 min irradiation, prior to plating (dark toxicity).” left out

[3] = Photophysical measurements (absorption, fluorescence quantum yield); type: physicochemical
Text: Hemin chloride and all reagents were obtained from commercial sources, and used as received unless otherwise noted. Dimethyl sulfoxide (DMSO) was distilled over CaH2 under reduced pressure. Deionized water was obtained from an ultrafiltration system (Milli-Q, Millipore) with a resistivity >18 MΩ·cm, and passed through a 0.22-μm filter to remove particulate matter. Absorption spectra were collected on a Varian Cary50 spectrometer; fluorescence emission data were collected on a Cary Eclipse fluorimeter with a gate time of 5 ms. ^1H NMR spectra were obtained in CDCl3 or DMSO-d6 using a Varian 800-MHz spectrometer; all chemical shifts (δ) reported in ppm.
The quantum yield of Ga-PpIX in deaerated DMSO was determined to be 6.3%, using Ru(II)(bipy)3Cl2 in aerated acetonitrile as a standard.

Ga(III)-protoporphyrin [Ga-PpIX (1)]
GaPpIX concentration showing aPDI efficacy (S. aureus): 0.06 to 0.12 µM | GaPpIX concentration for 3-log reduction by aPDI [1]: 0.5-4.5 μM | concentration for 3-log reduction (MRSA385): 89 nM | concentration for 6-log reduction (MRSA385): 470 nM | concentration for 3-log reduction (MRSA387): 59 nM | concentration for 6-log reduction (MRSA387): 1900 nM | concentration for 3-log reduction (MRSA383): 59 nM | concentration for 6-log reduction (MRSA383): 118 nM | concentration for 3-log reduction (MRSA386): 118 nM | concentration for 6-log reduction (MRSA386): 235 nM | time to saturation of uptake (CSHR-expressing bacteria): under 15 minutes | bactericidal activities (aPDI) [2]: 1 to 5 µM | molar extinction coefficient ε ([3]; DMSO, λmax=410 nm, 0.4-10 μM): 154000 M⁻¹ cm⁻¹ | fluorescence quantum yield ([3]; deaerated DMSO, Ru(II)(bipy)3Cl2 in aerated acetonitrile as standard): 6.3%
